Measurements as given in US20240350447A1, “DELIVERY METHODS FOR TREATING BRAIN AND CENTRAL NERVOUS SYSTEM DISEASES” (JENIVISION INC., priority 2021, published 2024).

Experiments:
[1] = Baseline endogenous levels of DHA, DHA-EE and JV-DE1; type: in vivo; conditions: undosed Bama minipigs
Protocol: Endogenous levels were measured in the plasma, cerebrospinal fluid, ocular tissues (retina, optic nerve, ocular muscles), and brain. The endogenous levels DHA are not attributable to NIODP administration of DHA, DHA-EE, or JV-DE1. The baseline data collected in Table 4 was taken from the same lot of pigs, from the same vendor, as the information collected in Tables 5-7.

[2] = DHA-EE distribution after single periorbital skin administration; type: in vivo, Bama minipigs
Protocol: In this example, 6174 μg/eye of docohexaenoic acid ethyl ester (DHA-EE) was applied to the periorbital skin of a left eye of a Bama minipig. […] 21099.7 ng/g of tissue and 21336.3 ng/g of tissue of DHA was measured in the left and right halves of the brain, respectively. […] The average amount of DHA present in the brain 3 hours post-dosage was 21218 ng/g.
Given that the average Bama pig brain weighs around 60 g, the amount of DHA delivered to the brain can be estimated to be 27,600 ng or 27.6 μg. Therefore, the percentage of administered dose=27.6 μg delivered to brain/6174 μg dosed=0.45% of DHA topically administered to the pig via periorbital administration was delivered to the brain. As a comparison, only about 0.025% of DHA that is orally administered is delivered to the brain or CNS.

[3] = 0 h, DHA-EE 6174 μg to periorbital skin of left eye
[4] = 1 h, DHA-EE 6174 μg to periorbital skin of left eye
[5] = 3 h, DHA-EE 6174 μg to periorbital skin of left eye

- Baseline endogenous concentration in brain [1]: BLQ
- Baseline endogenous concentration in cerebrospinal fluid [1]: BLQ
- Baseline endogenous concentration in eye tissue homogenate including (Retina, optic nerve, ocular muscle) [1]: BLQ
- Baseline endogenous concentration in plasma [1]: BLQ
- Drug Concentration in Plasma, analyte DHA [2, 3]: BLQ
- Drug Concentration in Plasma, analyte DHA-EE [2, 3]: BLQ
- Drug Concentration in Plasma, analyte DHA [2, 4]: BLQ
- Drug Concentration in Plasma, analyte DHA-EE [2, 4]: BLQ
- Percentage of administered dose delivered to the brain (as DHA) ([2]; 3 h, DHA-EE 6174 μg periorbital, whole brain estimate): 0.45%
- Analyte DHA, % of administered dose: Cerebrospinal fluid [2, 5]: 0%
- Analyte DHA, % of administered dose: brain-left [2, 5]: 0.332%
- Analyte DHA, % of administered dose: brain-right [2, 5]: 0.562%
- Analyte DHA, % of administered dose: inferior rectus muscle-left [2, 5]: 0.008%
- Analyte DHA, % of administered dose: inferior rectus muscle-right [2, 5]: 0.009%
- Analyte DHA, % of administered dose: lateral rectus muscle-left [2, 5]: 0.004%
- Analyte DHA, % of administered dose: lateral rectus muscle-right [2, 5]: 0.010%
- Analyte DHA, % of administered dose: medial rectus muscle-left [2, 5]: 0.020%
- Analyte DHA, % of administered dose: medial rectus muscle-right [2, 5]: 0.016%
- Analyte DHA, % of administered dose: optic nerve-left [2, 5]: 0.011%
- Analyte DHA, % of administered dose: optic nerve-right [2, 5]: 0.031%
- Analyte DHA, % of administered dose: retina-left [2, 5]: 0.130%
- Analyte DHA, % of administered dose: retina-right [2, 5]: 0.110%
- Analyte DHA, % of administered dose: superior rectus muscle-left [2, 5]: 0.043%
- Analyte DHA, % of administered dose: superior rectus muscle-right [2, 5]: 0.005%
- Analyte DHA, Concentration in Tissue: Cerebrospinal fluid [2, 5]: 0 ng/g
- Analyte DHA, Concentration in Tissue: brain-left [2, 5]: 21099.7 ng/g
- Analyte DHA, Concentration in Tissue: brain-right [2, 5]: 21336.3 ng/g
- Analyte DHA, Concentration in Tissue: inferior rectus muscle-left [2, 5]: 3161.1 ng/g
- Analyte DHA, Concentration in Tissue: inferior rectus muscle-right [2, 5]: 1287.8 ng/g
- Analyte DHA, Concentration in Tissue: lateral rectus muscle-left [2, 5]: 1356.3 ng/g
- Analyte DHA, Concentration in Tissue: lateral rectus muscle-right [2, 5]: 1085.6 ng/g
- Analyte DHA, Concentration in Tissue: medial rectus muscle-left [2, 5]: 4874.6 ng/g
- Analyte DHA, Concentration in Tissue: medial rectus muscle-right [2, 5]: 1690.7 ng/g
- Analyte DHA, Concentration in Tissue: optic nerve-left [2, 5]: 8794.6 ng/g
- Analyte DHA, Concentration in Tissue: optic nerve-right [2, 5]: 8839.4 ng/g
- Analyte DHA, Concentration in Tissue: retina-left [2, 5]: 48882.9 ng/g
- Analyte DHA, Concentration in Tissue: retina-right [2, 5]: 41629.4 ng/g
- Analyte DHA, Concentration in Tissue: superior rectus muscle-left [2, 5]: 10400.7 ng/g
- Analyte DHA, Concentration in Tissue: superior rectus muscle-right [2, 5]: 743.6 ng/g
- Analyte DHA-EE, % of administered dose: Cerebrospinal fluid [2, 5]: 0%
- Analyte DHA-EE, % of administered dose: brain-left [2, 5]: 0%
- Analyte DHA-EE, % of administered dose: brain-right [2, 5]: 0%
- Analyte DHA-EE, % of administered dose: inferior rectus muscle-left [2, 5]: 0.02%
- Analyte DHA-EE, % of administered dose: inferior rectus muscle-right [2, 5]: 0%
- Analyte DHA-EE, % of administered dose: lateral rectus muscle-left [2, 5]: 0.003%
- Analyte DHA-EE, % of administered dose: lateral rectus muscle-right [2, 5]: 0%
- Analyte DHA-EE, % of administered dose: medial rectus muscle-left [2, 5]: 0.02%
- Analyte DHA-EE, % of administered dose: medial rectus muscle-right [2, 5]: 0%
- Analyte DHA-EE, % of administered dose: optic nerve-left [2, 5]: 0%
- Analyte DHA-EE, % of administered dose: optic nerve-right [2, 5]: 0%
- Analyte DHA-EE, % of administered dose: retina-left [2, 5]: 0%
- Analyte DHA-EE, % of administered dose: retina-right [2, 5]: 0%
- Analyte DHA-EE, % of administered dose: superior rectus muscle-left [2, 5]: 0.04%
- Analyte DHA-EE, % of administered dose: superior rectus muscle-right [2, 5]: 0%
- Analyte DHA-EE, Concentration in Tissue: Cerebrospinal fluid [2, 5]: 0 ng/g
- Analyte DHA-EE, Concentration in Tissue: brain-left [2, 5]: 0 ng/g
- Analyte DHA-EE, Concentration in Tissue: brain-right [2, 5]: 0 ng/g
- Analyte DHA-EE, Concentration in Tissue: inferior rectus muscle-left [2, 5]: 7444.8 ng/g
- Analyte DHA-EE, Concentration in Tissue: inferior rectus muscle-right [2, 5]: 0 ng/g
- Analyte DHA-EE, Concentration in Tissue: lateral rectus muscle-left [2, 5]: 995.7 ng/g
- Analyte DHA-EE, Concentration in Tissue: lateral rectus muscle-right [2, 5]: 0 ng/g
- Analyte DHA-EE, Concentration in Tissue: medial rectus muscle-left [2, 5]: 7382.3 ng/g
- Analyte DHA-EE, Concentration in Tissue: medial rectus muscle-right [2, 5]: 0 ng/g
- Analyte DHA-EE, Concentration in Tissue: optic nerve-left [2, 5]: 0 ng/g
- Analyte DHA-EE, Concentration in Tissue: retina-left [2, 5]: 0 ng/g
- Analyte DHA-EE, Concentration in Tissue: retina-right [2, 5]: 0 ng/g
- Analyte DHA-EE, Concentration in Tissue: superior rectus muscle-left [2, 5]: 12844.5 ng/g
- Analyte DHA-EE, Concentration in Tissue: superior rectus muscle-right [2, 5]: 0 ng/g
- Average DHA present in the brain [2, 5]: 21218 ng/g
- DHA-EE in ocular muscles of the dosed eye [2, 5]: detectable
- DHA-EE measured in the brain [2, 5]: no DHA-EE was measured in the brain
- Drug Concentration in Plasma, analyte DHA [2, 5]: BLQ
- Drug Concentration in Plasma, analyte DHA-EE [2, 5]: BLQ
Structure (SMILES): CC/C=C\C/C=C\C/C=C\C/C=C\C/C=C\C/C=C\CCC(=O)OCC [DHA-EE, Docosahexaenoic acid ethyl ester]
